Data as given in article PMC7377239, “Cardiovascular Effects of Polychlorinated Biphenyls and Their Major Metabolites” (Environmental Health Perspectives, 2020).
Structures can show the parent of a compound that is named as a salt. Where two headings read alike, the source gives them in different places.

Tests used:
[1] = system: iCell endothelial cells (human iPSC-derived ECs); test: Tube formation (tubulogenesis) assay in iCell endothelial cells, 18 h; assay type: cell-based; details: Homo sapiens, Endothelial cell, 18 hr; for activity at 0.1 µM: 0.10 µM
Method in brief: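 Tube formation was measured by calcein AM imaging after overnight compound exposure (37°C, 0.5% DMSO vehicle) of human iPSC-derived ECs, 7,500/well, on reduced-growth-factor Geltrex in starvation medium. Vehicle-normalized data fitted to four-parameter logistic; POD set at one vehicle SD; without response, 100 μM taken as NOAEL.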

HUVECs = test: High-content imaging cytotoxicity in HUVECs, 24 h; assay type: cell-based, human; details: Homo sapiens, HUVEC, 24 h; for viability at 0.01 µM / activity at 0.01 µM / viability at 0.1 µM / activity at 0.1 µM / viability at 1 µM / activity at 1 µM / viability at 10 µM / activity at 10 µM / viability at 100 µM / activity at 100 µM: 0.00 µM = 100.00; for viability at 0.1 µM / activity at 0.1 µM: 0.10 µM
Method in brief: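 Read-out: multiwavelength high-content imaging of Hoechst 33342, MitoTracker Orange and calcein AM after 24 h compound exposure of confluent HUVEC monolayers. POD values were set using a one-SD cutoff from vehicle (0.5% DMSO) means; with no concentration–response, 100μM was assigned as no observable adverse effect level.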

[2] = iPSC-EC tube formation, 0.00 µM control = 100.00, read-out: endo.mtl.18hr
[3] = iPSC-EC tube formation, 0.00 µM control = 100.00, read-out: endo.tlps.18hr
[4] = iPSC-EC tube formation, 0.00 µM control = 100.00, read-out: endo.tta.18hr
[5] = iPSC-EC tube formation, 0.00 µM control = 100.00, read-out: endo.ttl.18hr
[6] = HUVECs, 24 hr, read-out: huvec.cyto.24hr
[7] = HUVECs, 24 hr, read-out: huvec.mito.24hr
[8] = HUVECs, 24 hr, read-out: huvec.mitoint.24hr
[9] = HUVECs, 24 hr, read-out: huvec.nma.24hr
[10] = HUVECs, 24 hrs, read-out: huvec.tc.24hrs

For `Oc1cccc(-c2ccc(Cl)cc2)c1` [3'-OH PCB3], the activity at 0.01 µM [1, 2] was 98%, the activity at 0.01 µM [1, 3] was 99.3% and the activity at 0.01 µM [1, 4] was 119%. It also gave an activity at 0.01 µM [1, 5] of 114%, an activity at 0.1 µM [1, 2] of 85.4% and an activity at 0.1 µM [1, 3] of 107%. For the same compound, the activity at 0.1 µM [1, 4] was 73%, the activity at 0.1 µM [1, 5] was 72.3% and the activity at 1 µM [1, 2] was 88.6%. For the same compound, the activity at 1 µM [1, 3] was 76.7%, the activity at 1 µM [1, 4] was 71.5% and the activity at 1 µM [1, 5] was 69.4%. For the same compound, the activity at 10 µM [1, 2] was 59%, the activity at 10 µM [1, 3] was 33.8% and the activity at 10 µM [1, 4] was 39.4%. It also gave an activity at 10 µM [1, 5] of 39.8%, an activity at 100 µM [1, 2] of 46% and an activity at 100 µM [1, 3] of 11.7%. It also gave an activity at 100 µM [1, 4] of 1.49%, an activity at 100 µM [1, 5] of 2.14% and a minimal effective concentration ([1]; iPSC-EC tube formation, top concentration 100.00 µM, read-out: endo.mtl.18hr POD) of 0.36 µM. The minimal effective concentration ([1]; iPSC-EC tube formation, top concentration 100.00 µM, read-out: endo.tlps.18hr POD) was 1.03 µM, the minimal effective concentration ([1]; iPSC-EC tube formation, top concentration 100.00 µM, read-out: endo.tta.18hr POD) was 0.49 µM and the minimal effective concentration ([1]; iPSC-EC tube formation, top concentration 100.00 µM, read-out: endo.ttl.18hr POD) was 0.51 µM. It also gave a viability at 0.01 µM (HUVECs; [6]) of 89.2%, an activity at 0.01 µM (HUVECs; [7]) of 89.3% and an activity at 0.01 µM (HUVECs; [8]) of 101%. The activity at 0.01 µM (HUVECs; [9]) was 97.3%, the viability at 0.1 µM (HUVECs; [6]) was 100% and the activity at 0.1 µM (HUVECs; [7]) was 100%. It also gave an activity at 0.1 µM (HUVECs; [8]) of 111%, an activity at 0.1 µM (HUVECs; [9]) of 92.6% and a viability at 1 µM (HUVECs; [6]) of 94.4%. The activity at 1 µM (HUVECs; [7]) was 93.7%, the activity at 1 µM (HUVECs; [8]) was 104% and the activity at 1 µM (HUVECs; [9]) was 92%. It also gave a viability at 10 µM (HUVECs; [6]) of 70.9%, an activity at 10 µM (HUVECs; [7]) of 66.2% and an activity at 10 µM (HUVECs; [8]) of 108%. The activity at 10 µM (HUVECs; [9]) was 84.9%, the viability at 100 µM (HUVECs; [6]) was 63.7% and the activity at 100 µM (HUVECs; [7]) was 77.8%. It also gave an activity at 100 µM (HUVECs; [8]) of 19.3%, an activity at 100 µM (HUVECs; [9]) of 68.8% and a minimal effective concentration (HUVECs; HUVECs, 24 hr, top concentration 100.00 µM, read-out: huvec.cyto.24hr POD) of 1.1 µM. It also gave a minimal effective concentration (HUVECs; HUVECs, 24 hr, top concentration 100.00 µM, read-out: huvec.mito.24hr POD) of 0.97 µM, a minimal effective concentration (HUVECs; HUVECs, 24 hr, top concentration 100.00 µM, read-out: huvec.mitoint.24hr POD) of 41.4 µM and a minimal effective concentration (HUVECs; HUVECs, 24 hr, top concentration 100.00 µM, read-out: huvec.nma.24hr POD) of 0.04 µM. The viability at 0.01 µM (HUVECs; [10]) was 89.2%, the viability at 0.1 µM (HUVECs; [10]) was 100% and the viability at 1 µM (HUVECs; [10]) was 94.6%. For the same compound, the viability at 10 µM (HUVECs; [10]) was 71%, the viability at 100 µM (HUVECs; [10]) was 83.9% and the minimal effective concentration (HUVECs; HUVECs, 24 hrs, top concentration 100.00 µM, read-out: huvec.tc.24hrs POD) was 1.1 µM.

`O=S(=O)(O)Oc1cc(Cl)c(-c2cc(Cl)ccc2Cl)cc1Cl` [4-PCB 52 sulfate] showed a minimal effective concentration ([1]; endothelial cells (endo), tube formation mtl, read-out: POD endo.mtl.18hr) of 7.44 µM, a minimal effective concentration ([1]; endothelial cells (endo), tube formation tlps, read-out: POD endo.tlps.18hr) of 5.74 µM and a minimal effective concentration ([1]; endothelial cells (endo), tube formation tta, read-out: POD endo.tta.18hr) of 8.83 µM. For the same compound, the minimal effective concentration ([1]; endothelial cells (endo), tube formation ttl, read-out: POD endo.ttl.18hr) was 9.64 µM, the minimal effective concentration (HUVECs; cyto, 24 hr, read-out: POD huvec.cyto.24hr) was 5.38 µM and the minimal effective concentration (HUVECs; mito, 24 hr, read-out: POD huvec.mito.24hr) was 3.31 µM. It also gave a minimal effective concentration (HUVECs; mitoint, 24 hr, read-out: POD huvec.mitoint.24hr) of 61.2 µM, a minimal effective concentration (HUVECs; nma, 24 hr, read-out: POD huvec.nma.24hr) of 33.9 µM and a minimal effective concentration (HUVECs; tc, 24 hr, read-out: POD huvec.tc.24hr) of 5.38 µM.
